Results on 9 molecules are retold here after PMC8957230 (ADMET & DMPK, 2019).

In brackets after ≈: the same amount, converted by molar mass. Like-named read-outs stand apart in the source and are kept apart here. Marks after values point to notes of the source that are not given here.

Details of data set [1]: method as in earlier work. Conditions: 5 mM sodium taurocholate and […] lecithin in pH 6.8 phosphate buffer; cited from earlier work.
For data set [2] the following is noted: cited from earlier work.
The conditions of data set [3]: cited from earlier work. The source holds these as a separate data set.
The conditions of data set [4]: average of two.
Procedure: Essentially, in the present investigation, about 0.5 mL of buffer was added to 200 mg of powder in a small vial and mixed by vortexing, and then pH was recorded when an equilibrium was reached after 5-10 min of mixing.
The nature of data set [5]: Ketoconazole solubility with fumaric/succinic acid and 1:1 physical mixtures with coformers. Format: physicochemical. Particulars: 1:1 ketoconazole-fumaric acid mixture, 25 °C.
Procedure: A series of solutions with different concentrations of acids were prepared and 3 mL quantities of these solutions were distributed in separate glass vials. […] Aliquots of suspensions (0.5-0.7 mL each) were, however, withdrawn from each vial after 4, 24 and 96 h of shaking for analysis of drug concentration by HPLC according to the method described earlier. For the analysis of solid phase, contents of the vials were transferred to 3-mL Eppendorf tubes and centrifuged using Beckman GS 6R centrifuge at 2000 RPM for 5 min. After centrifugation, the supernatants were removed and solid contents were dried in a vacuum oven at 50 °C, which were then analyzed by DSC and Raman spectroscopy.
In this study, different quantities of the mixtures (12 mg to 350 mg) were added to different 20 mL glass vials, and then 5 mL of water was added to each vial. Thus, the volume of water in each vial remained the same and only the amount of material added differed. […] Samples were withdrawn from each vial at 4, 24 and 96 h to measure drug concentration, as described earlier. The solid phase of the vials was analyzed using Raman spectroscopy to determine the identity of equilibrium species. From some of the vials, solid contents were separated by centrifugation, dried in a vacuum oven, and then analyzed by DSC.
Data set [6] can be described thus: Ketoconazole solubility by pH adjustment with HCl (pH-solubility profile). Format: physicochemical. Conditions: 25 °C. As to the method: Multiple vials were prepared using different concentration of HCl solutions (0.001M to 1M) so that different pH values could be attained, and, when needed, more amount of free base was added to maintain excess solid in the vials. […] Additional HCl solution and excess ketoconazole were added to the suspension in vial and shaken for another pH point, and the process was repeated until enough points on the pH scale were obtained. More than one suspension in different vials were used to generate a complete profile.

Data set [7] can be described thus: Intrinsic dissolution rate. Format: physicochemical. Details: key: -: Extremely low dissolution rate (practically zero) that could not be calculated with accuracy. Particulars: 25 °C. On the procedure: For each determination, 100 mg of powder was compressed into pellet by Carver press at 1 ton pressure for 10 seconds. The apparatus with the exposed surface of the material was immersed into 250 mL of dissolution medium and rotated at 200 RPM. pH of dissolution media during the intrinsic dissolution testing were maintained by two different methods: in one case, unbuffered media were used where either 0.1 M HCl or 0.1 M NaOH were added to keep pH constant at 3, 4 or 5 (±0.15), and in the second case, pH 3, 4 and 5 phthalate buffers prepared according to the USP were used as dissolution media to keep pH constant. Two mL of aliquot was withdrawn at each of 5, 15, 30, 60, 90 and 120 min time points, filtered by 0.45-micron PVDF filter, and analyzed by HPLC for drug concentration.

Data set [8] in a line: Solubility in buffered/non-buffered media. On the procedure:
Cocrystal solubilities were determined at pH 1 solution (0.1 M HCl), pH 2 HCl buffer), pH 5 acetate buffer and pH 8 phosphate buffer. Buffers were prepared according to the United States Pharmacopeia (USP) procedures. […] Aliquots were filtered by 0.45-micron PVDF filter and analyzed by HPLC. The solid phase was analyzed by Raman spectroscopy.

For data set [9] the following is noted: excess cocrystal in water, 25 °C.
[10] abbreviates: pH 3 phthalate buffer, initial (bulk) pH 2.93.
Where [11] appears, read: pH 5 neutralized phthalate buffer, initial (bulk) pH 4.97.
The mark [12] stands for this setting: pH 7 phosphate buffer, initial (bulk) pH 6.97.
Where [13] appears, read: buffers, pH 3 phthalate, 0.5 cm^2.
Where [14] appears, read: buffers, pH 4 phthalate, 0.5 cm^2.
Setting [15] is: unbuffered media, pH 3 kept constant with HCl or NaOH, 0.5 cm^2.
Setting [16] is: unbuffered media, pH 4 kept constant with HCl or NaOH, 0.5 cm^2.
Where [17] appears, read: initial pH 1.1 (0.1 M HCl), 25 °C.
[18] abbreviates: initial pH 2.1 HCl/KCl buffer, 25 °C.
Where [19] appears, read: initial pH 5.0 acetate buffer, 25 °C.
Where [20] appears, read: initial pH 7.9 phosphate buffer, 25 °C.

As usually defined, the pKa is the negative logarithm of the acid dissociation constant. With `CC(=O)Nc1nc2c(Oc3cc(-c4ccc(C(F)(F)F)cc4)ncn3)cccc2s1` [AMG 517], in data set [1], the “Solubility in FaSIF” value is 5 µg/mL (≈ 11.6 µM). Also, the pKa in data set [2] is listed as 0.68.

Take `CC(C)(C)C(=O)OCOP(=O)(COCCn1cnc2c(N)ncnc21)OCOC(=O)C(C)(C)C` [adefovir dipivoxil]: in data set [3], the Solubility in water is 790 µM and the “pH of saturated solutions” value is reported as 6.7.

As to `CCOc1ccccc1C(N)=O` [ethenzamide], the Solubility in water in data set [3] was 0.80 to 0.85 µg/mL.

`O=C(O)/C=C/C(=O)O` [fumaric acid]: in data set [2], the “pKa, first ionization” value is 2.74 and the “pKa, second ionization” value is listed as 4.17.

Consider `CC(=O)N1CCN(c2ccc(OC[C@H]3CO[C@](Cn4ccnc4)(c4ccc(Cl)cc4Cl)O3)cc2)CC1.Cl.Cl` [ketoconazole dihydrochloride salt, ketoconazole dihydrochloride], for which the “Solubility (in words)” value in data set [3] is “very high solubility”.

The term solubility denotes how much of the substance goes into solution per volume. Regarding `CC(=O)N1CCN(c2ccc(OCC3COC(Cn4ccnc4)(c4ccc(Cl)cc4Cl)O3)cc2)CC1` (stereo not shown) [ketoconazole], the “pH h=0 (slurry pH)” value is 4.17 in data set [4] (setting [10]), 5.00 in [4] (setting [11]) and 7.05 in [4] (setting [12]). For the same molecule, the solubility at 96 h in data set [5] (equilibrated 96 h, pH~3.7) was ~3000 µg/mL (≈ 5650 µM). In data set [5] (water, thermodynamic from solid, equilibrated 4 h, no conversion to cocrystal), the solubility at 4 h is ~7000 µg/mL (≈ 13200 µM). For the same molecule, the solubility in data set [6] (pH of suspension 3.35, pH lowered using HCl, listed as ketoconazole base) is 5429 µg/mL (≈ 10200 µM); in data set [6] (suspension in distilled water, pH adjusted with HCl, pH 3.1, aqueous buffer, thermodynamic from solid, pH 3.1, pH adjusted with HCl, read-out: Highest solubility measured), 148000 µg/mL (≈ 279000 µM); in data set [6] (suspension in distilled water, pH adjusted with HCl, pH 3.1, aqueous buffer, thermodynamic from solid, pH of suspension 3.1, pH lowered using HCl, read-out: Solubility) it was 148000 µg/mL (≈ 279000 µM); in data set [6] (suspension in distilled water, pH adjusted with HCl, pH 3.35, aqueous buffer, thermodynamic from solid, pH of suspension 3.35, pH lowered using HCl, read-out: Solubility) it was 5460 µg/mL (≈ 10300 µM); in [6] (suspension in distilled water, pH adjusted with HCl, pH 3.37, aqueous buffer, thermodynamic from solid, pH of suspension 3.37, pH lowered using HCl, read-out: Solubility), 7100 µg/mL (≈ 13400 µM); in data set [6] (suspension in distilled water, pH adjusted with HCl, pH 3.58, aqueous buffer, thermodynamic from solid, pH of suspension 3.58, pH lowered using HCl, read-out: Solubility), 3420 µg/mL (≈ 6440 µM). Also, the solubility in [6] (suspension in distilled water, pH adjusted with HCl, pH 3.81, aqueous buffer, thermodynamic from solid, pH of suspension 3.81, pH lowered using HCl, read-out: Solubility) is 1930 µg/mL (≈ 3630 µM); in data set [6] (suspension in distilled water, pH adjusted with HCl, pH 4.28, aqueous buffer, thermodynamic from solid, pH of suspension 4.28, pH lowered using HCl, read-out: Solubility), 729 µg/mL (≈ 1370 µM); in data set [6] (suspension in distilled water, pH adjusted with HCl, pH 4.48, aqueous buffer, thermodynamic from solid, pH of suspension 4.48, pH lowered using HCl, read-out: Solubility) it was 345 µg/mL (≈ 649 µM); in [6] (suspension in distilled water, pH adjusted with HCl, pH 4.56, aqueous buffer, thermodynamic from solid, pH of suspension 4.56, pH lowered using HCl, read-out: Solubility), 354 µg/mL (≈ 666 µM); in [6] (suspension in distilled water, pH adjusted with HCl, pH 4.95, aqueous buffer, thermodynamic from solid, pH of suspension 4.95, pH lowered using HCl, read-out: Solubility), 178 µg/mL (≈ 335 µM); in data set [6] (suspension in distilled water, pH adjusted with HCl, pH 4.99, aqueous buffer, thermodynamic from solid, pH of suspension 4.99, pH lowered using HCl, read-out: Solubility), 175 µg/mL (≈ 329 µM). Besides, the solubility in data set [6] (suspension in distilled water, pH adjusted with HCl, pH 7.12, aqueous buffer, thermodynamic from solid, pH of suspension 7.12, pH lowered using HCl, read-out: Solubility) amounted to 5 µg/mL (≈ 9.41 µM); in data set [6] (suspension in distilled water, pH adjusted with HCl, pH 7.23, aqueous buffer, thermodynamic from solid, pH of suspension 7.23, pH lowered using HCl, read-out: Solubility), 4 µg/mL (≈ 7.53 µM); in data set [6] (suspension in distilled water, pH adjusted with HCl, pH 3.67, pH of suspension 3.67, pH lowered using HCl, read-out: Solubility), 3030 µg/mL (≈ 5700 µM); in data set [6] (suspension in distilled water, pH adjusted with HCl, pH 3.71, pH of suspension 3.71, pH lowered using HCl, read-out: Solubility) it was 2780 µg/mL (≈ 5230 µM); in [6] (suspension in distilled water, pH adjusted with HCl, pH 7.27, pH of suspension 7.27, pH lowered using HCl, read-out: Solubility), 3 µg/mL (≈ 5.65 µM); in data set [6] (suspension in distilled water, pH adjusted with HCl, pH 7.72, pH of suspension 7.72, pH lowered using HCl, read-out: Solubility), 2 µg/mL (≈ 3.76 µM). The solubility was 3 µg/mL (≈ 5.65 µM) in [6] (suspension in distilled water, pH adjusted with HCl, pH 7.92, pH of suspension 7.92, pH lowered using HCl, read-out: Solubility); 2 µg/mL (≈ 3.76 µM) in data set [6] (suspension in distilled water, pH adjusted with HCl, pH 8.49, pH of suspension 8.49, pH lowered using HCl, read-out: Solubility); ~2 µg/mL (≈ 3.76 µM) in [6] (suspension in distilled water, pH adjusted with HCl, pH higher than 8, read-out: Intrinsic solubility of the free base (nonprotonated species)); ~27000 µg/mL (≈ 50800 µM) in [8] (0.1 M HCl, 25 °C, pH 1.1, simulated gastric fluid, thermodynamic from solid); ~3400 µg/mL (≈ 6400 µM) in data set [8] (HCl/KCl buffer, 25 °C, pH 2.1, simulated gastric fluid, thermodynamic from solid); 130 µg/mL (≈ 245 µM) in data set [8] (acetate buffer, 25 °C, pH 5, aqueous buffer, thermodynamic from solid). The solubility in data set [8] (phosphate buffer, pH 7.9) came out at 1 µg/mL (≈ 1.88 µM). Besides, the Dissolution rate constant in data set [7] (setting [13]) is recorded as 108 μg.min^-1.cm^-2; in data set [7] (setting [14]), 45 μg.min^-1.cm^-2; in data set [7] (buffers, pH 5 phthalate), “- ^**”; in data set [7] (setting [15]), 106 μg.min^-1.cm^-2; in data set [7] (setting [16]), 16 μg.min^-1.cm^-2; in data set [7] (unbuffered media, pH 5 kept constant with HCl or NaOH), “- ^**”. In addition, the pH after equilibration in data set [8] (setting [17]) is on record as ~2.9 ^*; in [8] (setting [18]) it was ~3.6 ^*; in data set [8] (setting [19]), 4.95; in data set [8] (setting [20]), 7.82±0.01.

For the molecule `Nc1nnc(-c2cccc(Cl)c2Cl)c(N)n1` [lamotrigine], in [3], the Solubility in water was 154 µg/mL and the “pH of the aqueous slurries during the determination of solubility” value is 6.8. In data set [3] (pH of ~5.5, cocrystals at 1:1 ratios), the Solubility in water is 280 µg/mL.

Take `O=C(O)CCC(=O)O` [succinic acid]: in [2], the “pKa, first ionization” value was 3.93 and the “pKa, second ionization” value is on record as 5.30.

Turning to ketoconazole-fumaric acid cocrystal, the “pH h=0 (slurry pH)” value is 3.13 in data set [4] (setting [10]); 4.08 in data set [4] (pH 4 phthalate buffer, initial (bulk) pH 3.96); 4.23 in data set [4] (setting [11]); 4.53 in data set [4] (setting [12]). The “pH of saturated solution in water” value in data set [9] was determined as 4.1. Also, in data set [9] (saturated solution pH 4.1 (fumaric) / 4.2 (succinic)), the “Solubility in water (as ketoconazole equivalents)” value came out at 2600 µg/mL. Besides, the Dissolution rate constant in data set [7] (setting [13]) is 108 μg.min^-1.cm^-2; in [7] (setting [14]), 71 μg.min^-1.cm^-2; in data set [7] (buffers, pH 5 phthalate, 0.5 cm^2) it was 51 μg.min^-1.cm^-2; in data set [7] (setting [15]), 164 μg.min^-1.cm^-2; in data set [7] (setting [16]) it was 124 μg.min^-1.cm^-2; in data set [7] (unbuffered media, pH 5 kept constant with HCl or NaOH, 0.5 cm^2), 93 μg.min^-1.cm^-2. Moreover, the pH after equilibration in data set [8] (setting [17]) turned out to be 2.03± 0.01; in data set [8] (setting [18]) it was 2.89 ± 0.02; in [8] (setting [19]), 4.31 ± 0.02; in data set [8] (setting [20]), 7.17 ± 0.01. The solubility was determined as 21540 ± 550 µg/mL in data set [8] (initial pH 1.1 (0.1 M HCl), 25 °C, average of three determinations); 3390 ± 20 µg/mL in data set [8] (initial pH 2.1 HCl/KCl buffer, 25 °C, average of three determinations); 600 ± 20 µg/mL in data set [8] (initial pH 5.0 acetate buffer, 25 °C, average of three determinations); 3 ± 2 µg/mL in data set [8] (initial pH 7.9 phosphate buffer, 25 °C, average of three determinations).
